Measurements: patent publication US9096852B2, “Inhibitors of micro-RNAs for use for preventing and/or attenuating skin ageing and/or for hydrating skin” (CHANEL PARFUMS BEAUTE, priority 2010, dated 2015)
Entries after “also recorded” stand apart in the source; their conditions may differ.

Experiments:
[1] = system: Mir 130a; test: Screening of active compounds: miR-130a expression by real time PCR in keratinocytes; assay type: cell-based, human; conditions: 48 hours
Description: (§1) Neonatal Human Primary Epidermal Keratinocytes (Hekn, Cascade, Invitrogen, Carlsbad, Calif., USA) were cultured in EpiLife medium added with HKGS growth supplements (Cascade). Cells were constantly kept subconfluent in order to avoid triggering of a differentiation process. Cells were passaged usually once a week, at each passage the harvested cells number and seeded cell number were recorded in order to calculate the population doublings occurring between passages and the population doubling time. At passage 2 300.000 keratinocytes were plated in 60 mm dishes. The day after the cells were treated with the compounds at the indicated concentration for 48 hours without changing of the media. Cells were collected by scraping in medium. Cells were centrifuged at 800 g for 5 min and RNA was extracted.
Total RNA from cells was isolated using mirVana mirRNA Isolation Kit (Ambion) by following the manufacturer's protocol for total RNA extraction. Total RNA was quantified using a NanoDrop Spectophotometer (Thermo Scientific, Delaware, USA) and RNA quality was controlled on an agarose gel. For microRNA detection, RNA was reverse transcribed using TaqMan MicroRNA Reverse Transcription kit and qRT-PCR was performed with TaqMan universal master mix (Applied Biosystem) and specific primers for miR-130a, -138, -181a and -191. U18 was used as an internal control (Applied Biosystem). The expression of each gene and miR was defined from the threshold cycle (Ct), and relative expression levels were calculated by using the 2-ΔΔCt method after normalization with reference to the expression of the housekeeping gene U18.
The following compounds were tested according to the process of the invention, and the following results were obtained: […]

[2] = system: Mir 181a; test: Screening of active compounds: miR-181a expression by real time PCR in keratinocytes; assay type: cell-based, human; conditions: 48 hours
Description: as §1, with “extracted. Total RNA from cells was isolated using […] Isolation Kit (Ambion) by following the manufacturer's protocol for total RNA extraction. Total RNA was quantified using a NanoDrop Spectophotometer (Thermo Scientific, Delaware, USA) and RNA quality was controlled on an agarose gel. […] The expression of each gene and miR was defined from the threshold cycle (Ct), and relative expression levels were calculated by using the 2-ΔΔCt method after normalization with reference to the expression of the housekeeping gene U18. […]” for “extracted.”

[3] = system: Mir 191; test: Screening of active compounds: miR-191 expression by real time PCR in keratinocytes; assay type: cell-based, human; conditions: 48 hours, compound at 6. 10-5%
Description: as §1
Total RNA from cells was isolated using mirVana mirRNA Isolation Kit (Ambion) by following the manufacturer's protocol for total RNA extraction. Total RNA was quantified using a NanoDrop Spectophotometer (Thermo Scientific, Delaware, USA) and RNA quality was controlled on an agarose gel. […] The expression of each gene and miR was defined from the threshold cycle (Ct), and relative expression levels were calculated by using the 2-ΔΔCt method after normalization with reference to the expression of the housekeeping gene U18. […]

[4] = system: Sirt-1 3′UTR wt; test: Luciferase reporter assay, Sirt-1 3′UTR wt, HEK 293E cells; assay type: cell-based, human; conditions: Sirt-1 3′UTR wt reporter, 12 pmol pre-miR, 24 hours after transfection
Description: Human Sirt-1 3′UTR was amplified by PCR from the first nucleotide after stop codon to the last nucleotide before polyadenylation signal from human genomic DNA using the following primers:
The 1940 bp fragment (i.e. pSirT1 3′UTR wt), after SpeI restriction, was ligated to a compatible XbaI linearized pGL3 Control vector (Promega, Madison, Wis., USA).
(§2) 2×10^5 HEK 293E cells were seeded in 12 well dishes 24 hours before transfection. Cells were transfected using Lipofectamine 2000 (Invitrogen) with 100 ng of pGL3 vectors (i.e. with Sirt-1 3′UTR wt or Sirt-1 3′UTR miR-138 del), 12 pmol of pre-miR-138 or pre-miR scramble sequence (Ambion), and 10 ng of Renilla luciferase pRL-CMV vector. Luciferase activities of cellular extracts were measured 24 hours after transfection, by using a Dual Luciferase Reporter Assay System (Promega); light emission was measured over 10 seconds using an OPTOCOMP I luminometer. Efficiency of transfection was normalised using Renilla luciferase activity.
2×10^5 HEK 293E cells were seeded in 12 well dishes 24 hours before transfection. […] Luciferase activities of cellular extracts were measured 24 hours after transfection, by using a Dual Luciferase Reporter Assay System (Promega); light emission was measured over 10 seconds using an OPTOCOMP I luminometer. […]

[5] = system: Sirt-1 3′UTR miR-181a del; test: Luciferase reporter assay, Sirt-1 3′UTR miR-181a del, HEK 293E cells; assay type: cell-based, human; conditions: Sit 3′UTR miR-181a del reporter, 24 hours after transfection
Description: On the other hand, from this wild type sequence, the miR-181a predicted target site (7 bp, UGAAUGU) was deleted by PCR using the following overlapping primers:
Therefore, the SirT1 3′UTR miR-181a del is obtained.
as §2, with “miR-181a” for “miR-138”, “pre-miR-181a” for “pre-miR-138”

[6] = system: SirT1 protein; test: Western blot of SirT1 in transfected human keratinocytes; assay type: cell-based; conditions: versus scrambled sequence (Ctrl)
Description: Human primary keratinocytes were cultured in EpiLife medium with HKGS growth supplements (Cascade) and treated with CaCl2 1.2 mM in order to induce the differentiation process. Differentiated cells were harvested after 7 days of treatment for microRNA levels analysis. Human primary keratinocytes were transfected with human pre-miR-138, anti-miR-138 and Cy3-labeled negative control (Ambion, Texas, USA) using the SiPORT neoFX transfection agent (Ambion) according to manufacturer protocols. 16 hrs after transfection, the medium was removed and replaced with fresh medium.
(§3) Total cell extracts were resolved on a SDS polyacrylamide gel, blotted on a Hybond P PVDF membrane (G&E Healthcare, UK). Membranes were blocked with PBST 5% non fat dry milk, incubated with primary antibodies for 2 h at room temperature, washed and hybridized for 1 h at room temperature using the appropriate horseradish peroxidase-conjugated secondary antibody (rabbit and mouse, BioRad, Hercules, Calif., USA). Detection was performed with the ECL chemiluminescence kit (Perkin Elmer, Waltham, Mass., USA).
anti-Sirt-1 (Abcam, Cambridge, United Kingdom; 1/500 dilution), anti-β actin (Sigma, St Louis, Minn., USA; 1/5000 dilution), were used.
The human primary keratinocytes described in Example 1 are used in this example. […]

[7] = system: proliferating keratinocytes; test: Proliferation by BrdU incorporation (Click-iT EdU flow cytometry) after miR over-expression; assay type: cell-based; conditions: over-expression in proliferating human primary keratinocytes
Description: (§4) The human primary keratinocytes described in Example 1 are used in this example. Human primary keratinocytes were cultured in EpiLife medium with HKGS growth supplements (Cascade). […] 16 hrs after transfection, the medium was removed and replaced with fresh medium.
Methods used to evaluate cell proliferation are generally based on incorporation of bromodeoxyuridine (BrdU) during DNA synthesis. The Click-iT™ EdU flow cytometry assay kit is a novel alternative to BrdU assay (Molecular Probes, Eugene, Oreg., USA). […] Briefly, cells were incubated with EdU for 4 hrs. After incubation, samples were fixed, permeabilized and stained according to the manufacturer's protocol. Cell cycle was analysed using a FACSCalibur flow cytometer (BD Biosciences, San Jose, Calif., USA). Fifteen thousand events were evaluated using the Cell Quest (BD) and Modfit LT (Verity Software; BD) programs.

[8] = system: proliferating keratinocytes; test: Senescence-associated β-galactosidase staining after miR over-expression; assay type: cell-based; conditions: over-expression in proliferating human primary keratinocytes
Description: as §4
Cells were plated in 6-well culture plates, washed with PBS, and fixed with 2% formaldehyde/0.2% glutaraldehyde in PBS for 5 minutes. After another washing step with PBS, cells were incubated with β-galactosidase staining solution (150 mmol/L NaCl, 2 mmol/L MgCl2, 5 mmol/L potassium ferricyanide, 5 mmol/L potassium ferrocyanide, 40 mmol/L citric acid, 12 mmol/L sodium phosphate, pH 6.0, containing 1 mg/mL 5-bromo-4-chloro-3-indolyl-β-Dgalactoside [X-gal]) for 24 hours at 37° C. The reaction was stopped by replacing the staining solution with 70% glycerol.

[9] = system: CDK6 3′UTR wt; test: Luciferase reporter assay, CDK6 3′UTR wt, HEK 293E cells; assay type: cell-based; conditions: CDK6 3′UTR wt reporter, 24 hours after transfection
Description: as §2, with “vectors” for “vectors (i.e. with Sirt-1 3′UTR wt or Sirt-1 3′UTR miR-138 del),”, “pre-miR-191” for “pre-miR-138”

[10] = system: CDK6 protein; test: Western blot of CDK6 in transfected human keratinocytes; assay type: cell-based; conditions: versus scrambled sequence (Ctrl)
Description: The human primary keratinocytes described in Example 1 are used in this example. Human primary keratinocytes were cultured in EpiLife medium with HKGS growth supplements (Cascade) and treated with CaCl2 1.2 mM in order to induce the differentiation process. Differentiated cells were harvested after 7 days of treatment for microRNA levels analysis. Human primary keratinocytes were transfected with human pre-miR-191, anti-miR-191 and Cy3-labeled negative control (Ambion, Texas, USA) using the SiPORT neoFX transfection agent (Ambion) according to manufacturer protocols. 16 hrs after transfection, the medium was removed and replaced with fresh medium.
as §3
Polyclonal anti-CDK-6 (Santa Cruz, sc-177, dilution 1:2000), anti-β actin (Sigma, St Louis, Minn., USA; 1/5000 dilution), were used.

`CCCCC[C@H](O)CC(=O)CCc1ccc(O)c(OC)c1` [Gingerol 6] was tested, and the “inhibition of Mir 130a expression” value ([1]; compound at 6. 10-5%) was >20 (37%), the “inhibition of Mir 181a expression” value ([2]; compound at 6. 10-5%) was >20 (29%) and the “inhibition of Mir 191 expression” value [3] was >20 (24%).

For `Oc1ccc(C=Cc2cc(O)cc(O)c2)cc1` [Resveratrol], the “inhibition of Mir 130a expression” value ([1]; compound at 4. 10-4%) was >20 (25%) and the “inhibition of Mir 181a expression” value ([2]; compound at 4. 10-4%) was >20 (21%).

With `COC(=O)C1Cc2cc(OC(C)=O)c(OC(C)=O)cc2N1C(C)=O` (centres unmarked) [Tryacetyl-leukodopachrome methyl ester] the “inhibition of Mir 130a expression” value ([1]; compound at 10-3%) was 20 (10-3%).

For “pre-miR-181a: human pre-miR-181a (Ambion) transfected to over-express miR-181a (SEQ ID No. 3) [reference compound]”, the luciferase activity [4] was 0.648±0.1 fold over control, the luciferase activity [5] was 0.93±0.09 fold over control and the “SirT1 protein level (Western blot)” value [6] was “markedly diminished”. The “proliferation as evaluated by BrdU incorporation” value (shortened to “proliferation as evaluated”) ([7]; listed as miR181a) was “significantly diminished”, the “proliferation as evaluated” value ([7]; listed as miR-181a) was “strong effect on inhibition of proliferation” and the “senescence as evaluated by SA-β-galactosidase staining” value ([8]; listed as miR-181a) was “sufficient per se to induce senescence; also recorded: significantly increase”.

B1: pre-miR-191: human pre-miR-191 (Ambion) transfected to over-express miR-191 (SEQ ID No. 4) (nucleic acid)
chain: CGGCUGGACAGCGGGCAACGGAAUCCCAAAAGCAGCUGUUGUCUCCAGAGCAUUCCAGCUGCGCUUGGAUUUCGUCCCCUGCUCUCCUGCCU
modifications: precursor form, further chemistry not given here
For B1, the luciferase activity [9] was 0.78±0.1 fold over control, the “CDK6 protein level (Western blot)” value [10] was “markedly diminished” and the “proliferation as evaluated” value ([7]; listed as miR191) was “significantly diminished”. The “proliferation as evaluated” value ([7]; listed as miR-191) was “strong effect on inhibition of proliferation” and the “senescence as evaluated by SA-β-galactosidase staining” value ([8]; listed as miR-191) was “significantly increase; also recorded: sufficient per se to induce senescence”.
